Target: T1, BSP30b (Bovine Salivary Protein 30b) (Bos taurus, UniProt P79125)
T1 construct: gene SPLUNC2B; E. coli BL21, pProEx Htb (BamHI/XhoI), HiTrap Ni, MONO Q and SEC purified; synthetic F61M/F115M double mutant; model covers about residues 40-235
T1 sequence (P79125 20-240): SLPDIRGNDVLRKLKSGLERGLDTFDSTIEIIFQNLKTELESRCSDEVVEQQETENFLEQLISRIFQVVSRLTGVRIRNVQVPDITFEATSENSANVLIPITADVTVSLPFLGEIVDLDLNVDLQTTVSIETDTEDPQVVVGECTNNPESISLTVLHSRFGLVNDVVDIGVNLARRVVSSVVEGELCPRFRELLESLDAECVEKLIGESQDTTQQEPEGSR
Test: X-ray co-crystal structure, […] Å
Type: binding
Conditions: co-crystallised at pH 7.5 after SEC removal of unbound ligand; in hydrophobic channel, about 80% occupancy in dominant site, weaker in second molecule of ASU; contacts ASP112 and ILE113

CCCCCCCC/C=C\CCCCCCCC(=O)O [oleic acid]
X-ray co-crystal structure, 2.30 Å: The only structure that revealed elongated stretches of electron density within the hydrophobic tunnel
